In article PMC9030223, “MBP-11901 Inhibits Tumor Growth of Hepatocellular Carcinoma through Multitargeted Inhibition of Receptor Tyrosine Kinases” (Cancers, 2022):

What was measured:
Experiment in all cases: CCK-8 cell proliferation/cytotoxicity assay
Type in all cases: cell-based
C6 = settings: Rattus norvegicus, C6, 24 h
Method: (§1) Cell proliferation was detected using the Cell Counting Kit-8 (CCK-8, Cat. CK04-13; Dojindo Laboratories, Kumamoto, Japan) according to the manufacturer’s instruction. To evaluate cytotoxicity, cells were seeded in a 96-well plate (FHC, 1 × 10^4 cells/well; Caki-2, PLC/PFR.5, and MCF 10A, 1 × 10^4 cells/well; AML12, HepG2, Hep3B, and Huh-7 1.2 × 10^4 cells/well; HeLa, HEK-293, A549, and PC-3, 1.5 × 10^4 cells/well; HT-29, MCF-7, C6, and NE-4C, 2 × 10^4 cells/well). After attachment and stabilization of cells for 24 h, the medium was switched with fresh containing various concentrations (0, 1, 5, 10, 25, 50, and 100 μM) of MBP-11901, and cells were incubated for 22 h. Next, CCK-8 solution was added to each well, and cells were incubated for another 2 h. Absorbance was then measured at 450 nm using a microplate reader (SpectraMax i3, Molecular Devices, San Jose, CA, USA). The IC50 and log IC50 values were calculated using GraphPad Prism (version 5.02; GraphPad PRISM software Inc. San Diego, CA, USA). All experiments were independently performed 3 times. The graph of log IC50 values represents average values.

Caki-2 = settings: Homo sapiens, CAKI-2, 24 h
Method: as §1

[1] = system: FHC colon epithelial cells; settings: Homo sapiens, FHC normal cells, 24 h
Method: as §1

HEK-293 = settings: Homo sapiens, HEK293; HEK-293 normal cells, 24 h
Method: as §1

HT-29 = settings: Homo sapiens, HT-29, 24 h
Method: as §1

HeLa = settings: Homo sapiens, 24 h
Method: as §1

Hep3B = settings: Homo sapiens, 24 h treatment
Method: as §1

HepG2 = settings: Homo sapiens; HepG2, 24 h treatment
Method: as §1

Huh-7 = settings: Homo sapiens; Huh-7, 24 h treatment
Method: as §1

MCF-7 = settings: Homo sapiens, MCF7; MCF-7, 24 h
Method: as §1

[2] = system: MCF10a breast epithelial cells; settings: Homo sapiens, MCF-10A; MCF10a normal cells, 24 h
Method: as §1

NE-4C = settings: Mus musculus; NE-4C normal cells, 24 h
Method: as §1

PC3 = settings: Homo sapiens, PC-3; PC3, 24 h
Method: as §1

PLC/PRF5 = settings: Homo sapiens, PLC-PRF-5; PLC/PRF5, 24 h treatment
Method: as §1

## NCC(N)C(=O)Nc1ccc(-c2nc3ccccc3s2)cc1 (centres unmarked) [MBP-11901]
C6
  IC50: 77.8 ± 9.73 µM
Caki-2
  IC50: 75.7 ± 3.44 µM
[1]
  IC50: 72.7 ± 1.99 µM
HEK-293
  IC50: 68.2 ± 2.79 µM
HT-29
  IC50: 29.86 ± 0.27 µM
HeLa
  IC50: 41.9 ± 3.38 µM
Hep3B
  IC50: 16.8 ± 0.88 µM
HepG2
  IC50: 5.16 ± 1.37 µM
Huh-7
  IC50: 29.4 ± 1.13 µM
MCF-7
  IC50: 65.9 ± 12.3 µM
[2]
  IC50: 65.1 ± 1.88 µM
NE-4C
  IC50: 36.8 ± 3.66 µM
PC3
  IC50: 95 ± 0.82 µM
PLC/PRF5
  IC50: 18.6 ± 0.81 µM
